Measurements from patent US20230190954A1, “COMPOSITION AND METHODS FOR TREATMENT OF PRIMARY CILIARY DYSKINESIA” (TRANSLATE BIO, INC., priority 2020, published 2023).

Assays:
mouse lungs [1] = test: In vivo screen of cationic lipids: FFL mRNA-LNP pulmonary delivery, IVIS luciferase imaging; parameters: species or system male CD1 mice; conditions: for potency as determined by the average radiance detected in mouse lungs: FFL mRNA-LNP, single intratracheal administration, about 5 hours post-dose; for selection based on performance in the in vivo screen: about 150 cationic lipids tested; for suitability/performance in liposomes administered through pulmonary delivery via nebulization: mouse, in vivo
Procedure: In this example, various cationic lipids were tested for in vivo efficacy when mRNA encapsulated in lipid nanoparticles (mRNA-LNP) were administered to mice by pulmonary delivery. The cationic lipids were tested for both potency, as determined by levels of protein production, and tolerability, as determined by side effects associated with clearance and metabolism.
About 150 cationic lipids were tested. (FIG. 9). Each cationic lipid was used in preparing lipid nanoparticles encapsulating mRNA encoding firefly luciferase protein (FFL mRNA) according to methods known in the art. For example, suitable methods for mRNA encapsulation include methods described in International Publication Nos. WO2016/004318 and WO 2018/089801, which is hereby incorporated by reference in its entirety. The tested lipid nanoparticles comprised a lipid component consisting of a cationic lipid, a non-cationic lipid (DOPE), a PEG-modified lipid (DMG-PEG2K), and optionally cholesterol.
Lipid nanoparticle formulations comprising FFL mRNA were administered to male CD1 mice by a single intratracheal administration via nebulization using a Microsprayer®. At approximately 5 hours post-dose, the animals were dosed with luciferin by intraperitoneal injection and all animals were imaged using an IVIS imaging system to measure luciferase production in the lung. […] Some cationic lipids remarkably had greater than 50-fold increase in pulmonary protein expression as compared to other cationic lipids.

mouse lungs [2] = test: as above; parameters: species or system male CD1 mice; conditions: pulmonary-delivered (e.g., nebulized) FFL mRNA in LNP with this cationic lipid, threshold lines in FIG. 9

| Structure (SMILES) | potency as determined by the average radiance detected in mouse lungs (mouse lungs [1]) | selection based on performance in the in vivo screen (mouse lungs [1]) | suitability/performance in liposomes administered through pulmonary delivery via nebulization (mouse lungs [1]) | historical radiance/expression of pulmonary-delivered FFL mRNA-LNP (mouse lungs [2]) |
| --- | --- | --- | --- | --- |
| CCCCCCCCOC(=O)CC(CC(=O)OCCCCCCCC)(OC(=O)CCN(C)C)C(=O)OCCCCCCCC [TL1-01D-DMA, trioctyl 2-((3-(dimethylamino)propanoyl)oxy)propane-1,2,3-tricarboxylate] | particularly high potency | selected for further investigation | performed particularly well | – |
| CCCCCCCC(=O)OCCCCCCCCCOC(=O)CC(CC(=O)OCCCCCCCCCOC(=O)CCCCCCC)(OC(=O)CCN(C)C)C(=O)OCCCCCCCCCOC(=O)CCCCCCC [TL1-10D-DMA] | – | selected for further investigation | – | – |
| CCCCCCCCCCCCC(O)CN(CCCC(=O)Oc1c(OC)cc(C(=O)OCCCN(C)C)cc1OC)CC(O)CCCCCCCCCCCC (stereo not shown) [SY-3-E14-DMAPr] | – | selected for further investigation | – | – |
| CCCCCCCCC(O)CN(CCCCC(=O)OCCN1CC(C)N(CCOC(=O)CCCCN(CC(O)CCCCCCCC)CC(O)CCCCCCCC)CC1C)CC(O)CCCCCCCC (stereo not shown) [HEP-E4-E10] | particularly high potency | selected for further investigation | performed particularly well | – |
| CCCCCCCCCCCCCCOC(=O)CC(CC(=O)OCCCCCCCCCCCCCC)(OC(=O)CCN(C)C)C(=O)OCCCCCCCCCCCCCC [TL1-04D-DMA] | particularly high potency | selected for further investigation | performed particularly well | – |
| CC(C)CCCC(C)C1CCC2C3CC=C4CC(SSCCNC(=N)N)CCC4(C)C3CCC12C (stereo not shown) [HGT4002] | – | selected for further investigation | – | – |
| CCCCC/C=C\C/C=C\CCCCCCCC(=O)OCC(COC(=O)CCCCCCC/C=C\C/C=C\CCCCC)(COC(=O)CCCCCCC/C=C\C/C=C\CCCCC)NCCS(=O)(=O)NCCCN(C)C [GL-TES-SA-DMP-E18-2] | particularly high potency | selected for further investigation | performed particularly well | – |
| CCCCC/C=C\C/C=C\CCCCCCCC(=O)OCC(COC(=O)CCCCCCC/C=C\C/C=C\CCCCC)(COC(=O)CCCCCCC/C=C\C/C=C\CCCCC)NCCS(=O)(=O)NCCN(C)C [GL-TES-SA-DME-E18-2, 2-((2-(N-(2-(dimethylamino)ethyl)sulfamoyl)ethyl)amino)-2-((((9Z,12Z)-octadeca-9,12-dienoyl)oxy)methyl)propane-1,3-diyl (9Z,9′Z,12Z,12′Z)-bis(octadeca-9,12-dienoate)] | particularly high potency | selected for further investigation | performed particularly well | – |
| CC(C)CCCC(C)[C@H]1CCC2C3CC=C4C[C@@H](OC(=O)CCc5c[nH]cn5)CC[C@]4(C)C3CC[C@@]21C (stereo partly shown) [ICE, imidazole cholesterol ester] | – | – | – | around 10^4 p/s/cm^2sr |
| CCCCCCCCC(O)CN(CCCC(=O)OCCN1CC(C)N(CCOC(=O)CCCN(CC(O)CCCCCCCC)CC(O)CCCCCCCC)CC1C)CC(O)CCCCCCCC (stereo not shown) [HEP-E3-E10] | particularly high potency | selected for further investigation | performed particularly well | – |
